Results published in patent US6599930B2, “Coniosetin and derivatives thereof, process for the preparation and the use thereof” (Aventis Pharma Deutschland GmbH, priority 2000, dated 2003).
Values after ≈ are worked out from the molar mass of the structure shown. Where two headings read alike, the source gives them in different places.

Legend:
Solubility = type: physicochemical
bacteria [1] = assay: Antibacterial effect, general statements; type: cell-based; settings: general statement
S. pneumoniae = assay: MIC, serial dilution test; type: cell-based; settings: Streptococcus pneumoniae
Description: (§1) Table 1 summarizes the minimum inhibitory concentrations (MIC) of coniosetin by way of example.

S. pyogenes = assay: MIC, serial dilution test; type: cell-based; settings: Streptococcus pyogenes
Description: as §1

Streptococcus gr. G = assay: MIC, serial dilution test; type: cell-based
Description: as §1

Enterococcus faecium = assay: MIC, serial dilution test; type: cell-based; settings: teiR vanR eryR tetR
Description: as §1

S. epidermidis = assay: MIC, serial dilution test; type: cell-based; settings: Staphylococcus epidermidis
Description: as §1

Escherichia coli [2] = assay: MIC, serial dilution test; type: cell-based; settings: 18 h
Description: as §1

Enterococcus faecalis = assay: MIC, serial dilution test; type: cell-based
Description: as §1

Staphylococcus aureus [3] = assay: MIC, serial dilution test; type: cell-based
Description: as §1

S. agalactiae = assay: MIC, serial dilution test; type: cell-based; settings: Streptococcus agalactiae, ery R
Description: as §1

S. sanguis = assay: MIC, serial dilution test; type: cell-based; settings: ery R
Description: as §1

S. mitis = assay: MIC, serial dilution test; type: cell-based; settings: Streptococcus mitis
Description: as §1

Tolerability = settings: at the effective concentration and at higher concentrations
Aspergillus niger = assay: Agar diffusion test; type: cell-based; settings: for zone of inhibition at 10000 µM: 40 h, A. niger, 28° C., 40 hours, read-out: Zone of inhibition, diameter
Description: (§2) Agar plates were prepared with a 2 ml inoculum of Staphylococcus aureus in 200 ml of agar solution, a 2 ml inoculum of Escherichia coli in 200 ml of agar; a 2 ml inoculum of Candida albicans in 200 ml of agar solution; a 1 ml inoculum of Aspergillus niger in 200 ml of agar solution and a 3 ml inoculum of Streptomyces murinus in 200 ml of agar solution. The coniosetin was applied in a 10 mM solution to disks with a diameter of 6 mm and placed on the agar plate. The inoculated Staphylococcus, E. coli and Candida plates were incubated at 37° C. for 16 hours, the A. niger plate was incubated at 28° C. for 40 hours, and the Streptomyces plate was incubated at 28° C. for 16 hours. Zones of inhibition with the following diameters (mm) were then observed.

Candida albicans = assay: Agar diffusion test; type: cell-based; settings: for zone of inhibition at 10000 µM: 16 h, C. albicans, 37° C., 16 hours, read-out: Zone of inhibition, diameter
Description: as §2

Escherichia coli [4] = assay: Agar diffusion test; type: cell-based; settings: E. coli, 37° C., 16 hours
Description: as §2

Staphylococcus aureus [5] = assay: Agar diffusion test; type: cell-based; settings: 16 h, S. aureus, 37° C., read-out: Zone of inhibition, diameter
Description: as §2

Streptomyces murinus = assay: Agar diffusion test; type: cell-based; settings: 16 h, S. murinus, 28° C., read-out: Zone of inhibition, diameter
Description: as §2

Stability in solution = type: physicochemical
bacteria [6] = settings: as described in the cited literature; cited from earlier work
[7] = 10 μl of 10 mM solution on 6 mm disk
[8] = 20 μl of 10 mM solution on 6 mm disk
[9] = 40 μl of 10 mM solution on 6 mm disk
[10] = compared with the antibacterial effect (Example 8)

C/C=C/C=C/C1C(C)=CC2CC(C)CCC2C1(C)/C(O)=C1\C(=O)NC(C(C)O)C1=O (centres unmarked) [coniosetin]
Solubility in organic solvents (Solubility; organic solvents of medium polarity and above): soluble
Solubility in water (Solubility; water): low solubility
Antibacterial effect (bacteria [1]): very good antibacterial activity
MIC (S. pneumoniae; 18 h, ery R (first listed strain), after 18 h): 0.6 µg/mL (≈ 1.45 µM)
MIC (S. pneumoniae; 18 h, ery R (second listed strain), after 18 h): 0.6 µg/mL (≈ 1.45 µM)
MIC (S. pneumoniae; 18 h, ery R (third listed strain), after 18 h): 0.6 µg/mL (≈ 1.45 µM)
MIC (S. pneumoniae; 18 h, ery R pen R (first listed strain), after 18 h): 0.6 µg/mL (≈ 1.45 µM)
MIC (S. pneumoniae; 18 h, ery R pen R (second listed strain), after 18 h): 0.6 µg/mL (≈ 1.45 µM)
MIC (S. pneumoniae; 18 h, ery S pen R, after 18 h): 0.6 µg/mL (≈ 1.45 µM)
MIC (S. pneumoniae; 18 h, ery S, after 18 h): 0.6 µg/mL (≈ 1.45 µM)
MIC (S. pneumoniae; 24 h, ery R (first listed strain)): 0.6 µg/mL (≈ 1.45 µM)
MIC (S. pneumoniae; 24 h, ery R (second listed strain)): 0.6 µg/mL (≈ 1.45 µM)
MIC (S. pneumoniae; 24 h, ery R (third listed strain)): 0.6 µg/mL (≈ 1.45 µM)
MIC (S. pneumoniae; 24 h, ery R pen R (first listed strain)): 0.6 µg/mL (≈ 1.45 µM)
MIC (S. pneumoniae; 24 h, ery R pen R (second listed strain)): 0.6 µg/mL (≈ 1.45 µM)
MIC (S. pneumoniae; 24 h, ery S): 0.6 µg/mL (≈ 1.45 µM)
MIC (S. pneumoniae; 24 h, ery S pen R): 1.2 µg/mL (≈ 2.9 µM)
MIC (S. pneumoniae; 48 h, ery R (first listed strain)): 0.6 µg/mL (≈ 1.45 µM)
MIC (S. pneumoniae; 48 h, ery R (second listed strain)): 0.6 µg/mL (≈ 1.45 µM)
MIC (S. pneumoniae; 48 h, ery R (third listed strain)): 1.2 µg/mL (≈ 2.9 µM)
MIC (S. pneumoniae; 48 h, ery R pen R (first listed strain)): 0.6 µg/mL (≈ 1.45 µM)
MIC (S. pneumoniae; 48 h, ery R pen R (second listed strain)): 0.6 µg/mL (≈ 1.45 µM)
MIC (S. pneumoniae; 48 h, ery S): 0.6 µg/mL (≈ 1.45 µM)
MIC (S. pneumoniae; 48 h, ery S pen R): 1.2 µg/mL (≈ 2.9 µM)
MIC (S. pyogenes; 18 h, ery R, after 18 h): 1.2 µg/mL (≈ 2.9 µM)
MIC (S. pyogenes; 18 h, ery S, after 18 h): 0.6 µg/mL (≈ 1.45 µM)
MIC (S. pyogenes; 24 h, ery R): 1.2 µg/mL (≈ 2.9 µM)
MIC (S. pyogenes; 24 h, ery S): 1.2 µg/mL (≈ 2.9 µM)
MIC (S. pyogenes; 48 h, ery R): 1.2 µg/mL (≈ 2.9 µM)
MIC (S. pyogenes; 48 h, ery S): 1.2 µg/mL (≈ 2.9 µM)
MIC (Streptococcus gr. G; 18 h, ery R, after 18 h): 0.6 µg/mL (≈ 1.45 µM)
MIC (Streptococcus gr. G; 18 h, ery S, after 18 h): 1.2 µg/mL (≈ 2.9 µM)
MIC (Streptococcus gr. G; 24 h, ery R): 0.6 µg/mL (≈ 1.45 µM)
MIC (Streptococcus gr. G; 24 h, ery S): 1.2 µg/mL (≈ 2.9 µM)
MIC (Streptococcus gr. G; 48 h, ery R): 0.6 µg/mL (≈ 1.45 µM)
MIC (Streptococcus gr. G; 48 h, ery S): 1.2 µg/mL (≈ 2.9 µM)
MIC (Enterococcus faecium; 24 h): 1.2 µg/mL (≈ 2.9 µM)
MIC (Enterococcus faecium; 48 h): 2.5 µg/mL (≈ 6.05 µM)
MIC (Enterococcus faecium; after 18 h): 1.2 µg/mL (≈ 2.9 µM)
MIC (S. epidermidis; 18 h, oxa R ery R, after 18 h): 0.6 µg/mL (≈ 1.45 µM)
MIC (S. epidermidis; 18 h, oxa S ery R, after 18 h): 0.3 µg/mL (≈ 0.725 µM)
MIC (S. epidermidis; 24 h, oxa R ery R): 1.2 µg/mL (≈ 2.9 µM)
MIC (S. epidermidis; 24 h, oxa S ery R): 0.3 µg/mL (≈ 0.725 µM)
MIC (S. epidermidis; 48 h, oxa R ery R): 1.2 µg/mL (≈ 2.9 µM)
MIC (S. epidermidis; 48 h, oxa S ery R): 0.3 µg/mL (≈ 0.725 µM)
MIC (Escherichia coli [2]): > 40 µg/mL
MIC (Enterococcus faecalis; ery R, 24 h): 2.5 µg/mL (≈ 6.05 µM)
MIC (Enterococcus faecalis; ery R, 48 h): 2.5 µg/mL (≈ 6.05 µM)
MIC (Enterococcus faecalis; ery R, after 18 h): 2.5 µg/mL (≈ 6.05 µM)
MIC (Enterococcus faecalis; ery S, 24 h, read-out: MIC): 2.5 µg/mL (≈ 6.05 µM)
MIC (Enterococcus faecalis; ery S, 48 h, read-out: MIC): 2.5 µg/mL (≈ 6.05 µM)
MIC (Enterococcus faecalis; ery S, after 18 h, read-out: MIC): 2.5 µg/mL (≈ 6.05 µM)
MIC (Staphylococcus aureus [3]; 18 h, S. aureus, oflR oxaR eryR tetR, after 18 h): 0.6 µg/mL (≈ 1.45 µM)
MIC (Staphylococcus aureus [3]; 18 h, S. aureus, oxa R ery R, after 18 h): 0.3 µg/mL (≈ 0.725 µM)
MIC (Staphylococcus aureus [3]; 18 h, S. aureus, oxa S ery R (first listed strain), after 18 h): 0.3 µg/mL (≈ 0.725 µM)
MIC (Staphylococcus aureus [3]; 18 h, S. aureus, oxa S ery R (second listed strain), after 18 h): 0.6 µg/mL (≈ 1.45 µM)
MIC (Staphylococcus aureus [3]; 18 h, S. aureus, oxaR eryR tetR, after 18 h): 0.3 µg/mL (≈ 0.725 µM)
MIC (Staphylococcus aureus [3]; 18 h, ery S, after 18 h): 0.3 µg/mL (≈ 0.725 µM)
MIC (Staphylococcus aureus [3]; 24 h, S. aureus, oflR oxaR eryR tetR): 0.6 µg/mL (≈ 1.45 µM)
MIC (Staphylococcus aureus [3]; 24 h, S. aureus, oxa R ery R): 0.3 µg/mL (≈ 0.725 µM)
MIC (Staphylococcus aureus [3]; 24 h, S. aureus, oxa S ery R (first listed strain)): 0.3 µg/mL (≈ 0.725 µM)
MIC (Staphylococcus aureus [3]; 24 h, S. aureus, oxa S ery R (second listed strain)): 0.6 µg/mL (≈ 1.45 µM)
MIC (Staphylococcus aureus [3]; 24 h, S. aureus, oxaR eryR tetR): 0.3 µg/mL (≈ 0.725 µM)
MIC (Staphylococcus aureus [3]; 24 h, ery S): 0.3 µg/mL (≈ 0.725 µM)
MIC (Staphylococcus aureus [3]; 48 h, S. aureus, oflR oxaR eryR tetR): 0.6 µg/mL (≈ 1.45 µM)
MIC (Staphylococcus aureus [3]; 48 h, S. aureus, oxa R ery R): 0.3 µg/mL (≈ 0.725 µM)
MIC (Staphylococcus aureus [3]; 48 h, S. aureus, oxa S ery R (first listed strain)): 0.3 µg/mL (≈ 0.725 µM)
MIC (Staphylococcus aureus [3]; 48 h, S. aureus, oxa S ery R (second listed strain)): 0.6 µg/mL (≈ 1.45 µM)
MIC (Staphylococcus aureus [3]; 48 h, S. aureus, oxaR eryR tetR): 0.3 µg/mL (≈ 0.725 µM)
MIC (Staphylococcus aureus [3]; 48 h, ery S): 0.6 µg/mL (≈ 1.45 µM)
MIC (S. agalactiae; 24 h): 2.5 µg/mL (≈ 6.05 µM)
MIC (S. agalactiae; 48 h): 2.5 µg/mL (≈ 6.05 µM)
MIC (S. agalactiae; after 18 h): 2.5 µg/mL (≈ 6.05 µM)
MIC (S. sanguis; 24 h): 1.2 µg/mL (≈ 2.9 µM)
MIC (S. sanguis; 48 h): 2.5 µg/mL (≈ 6.05 µM)
MIC (S. sanguis; after 18 h): 1.2 µg/mL (≈ 2.9 µM)
MIC (S. mitis; 18 h, ery R, after 18 h): 2.5 µg/mL (≈ 6.05 µM)
MIC (S. mitis; 18 h, ery S, after 18 h): 1.2 µg/mL (≈ 2.9 µM)
MIC (S. mitis; 24 h, ery R): 2.5 µg/mL (≈ 6.05 µM)
MIC (S. mitis; 24 h, ery S): 2.5 µg/mL (≈ 6.05 µM)
MIC (S. mitis; 48 h, ery R): 2.5 µg/mL (≈ 6.05 µM)
MIC (S. mitis; 48 h, ery S): 2.5 µg/mL (≈ 6.05 µM)
Tolerability (Tolerability): well-tolerated
zone of inhibition at 10000 µM (Aspergillus niger; [7]): 0 mm
zone of inhibition at 10000 µM (Aspergillus niger; [8]): 0 mm
zone of inhibition at 10000 µM (Aspergillus niger; [9]): 8 mm
Inhibitory effect on fungi (Aspergillus niger; [10]): inhibitory effect—although weaker
zone of inhibition at 10000 µM (Candida albicans; [7]): 9 mm
zone of inhibition at 10000 µM (Candida albicans; [8]): 10 mm
zone of inhibition at 10000 µM (Candida albicans; [9]): 10.5 mm
Inhibitory effect on yeasts (Candida albicans; [10]): inhibitory effect—although weaker
Zone of inhibition, diameter (Escherichia coli [4]; [8]): 0 mm
Zone of inhibition, diameter (Escherichia coli [4]; [9]): 0 mm
zone of inhibition at 10000 µM (Escherichia coli [4]; Escherichia coli, 10 μl of 10 mM solution on 6 mm disk, read-out: Zone of inhibition, diameter): 0 mm
zone of inhibition at 10000 µM (Staphylococcus aureus [5]; [7]): 13 mm
zone of inhibition at 10000 µM (Staphylococcus aureus [5]; [8]): 14.5 mm
zone of inhibition at 10000 µM (Staphylococcus aureus [5]; [9]): 15.5 mm
zone of inhibition at 10000 µM (Streptomyces murinus; [7]): 0 mm
zone of inhibition at 10000 µM (Streptomyces murinus; [8]): 9 mm
zone of inhibition at 10000 µM (Streptomyces murinus; [9]): 10 mm
Stability (Stability in solution; neutral and weakly acidic media): Stable
Stability (Stability in solution; strongly acidic and strongly alkaline solution): unstable

CCCCCCC/C=C/C(=O)N1C(O)=C(C(C)=O)C(=O)[C@H]1CC(C)C [reutericyclin]
Antibacterial activity (bacteria [6]): weak antibacterial activity

harzianic acid
Antibacterial activity (bacteria [6]): very low activity
